Experimental data reported in patent publication US11692028B2, “Map kinase pathway targets for the treatment of Marfan syndrome” (The Johns Hopkins University, priority 2017, dated 2023).

Tests used:
[1] = system: pSmad2, pErk1/2, pp38, pEgfr; assay: Western blot analysis of the aortic root of treated 129 MFS mice; format: in vivo, mouse; settings: for signaling cascade activation in aortic root (Western blot): treated 129 MFS mice at 4 months of age, FIG. 2E, 3G
Description: Losartan was dissolved in drinking water and filtered to reach a concentration of 0.6 g/L, giving an estimated daily dose of 60 mg/kg/day, as described previously (Habashi, J. P. et al. Science 312, 117-21 (2006)). Mice were started on losartan at 2 months of age and continued for 8 months. Placebo-treated animals received regular drinking water. RDEA119 was reconstituted in 10% 2-hydroxypropyl-beta-cyclodextrin (Sigma-Aldrich, Mo., USA) dissolved in PBS, and administered twice daily by oral gavage at a dose of 25 mg/kg, as described previously (Holm, T. M. et al. Science 15, 358-61 (2011)). Treatment was initiated at 2 months of age and continued for 2 months. 10% 2-hydroxypropyl-beta-cyclodextrin dissolved in PBS was administered as a control. Erlotinib was reconstituted in 1% methylcellulose (Sigma-Aldrich) dissolved in PBS, and administered daily by oral gavage at a dose of 50 mg/kg. Treatment was initiated at 2 months of age and continued for 2 months. 1% methylcellulose dissolved in PBS was administered as a control. Mice that were sacrificed for Western Blot analysis had their proximal ascending aortas immediately dissected, flash frozen in liquid nitrogen and stored at -80° C. until further processing. Protein was extracted using the reagents and protocol from a Total Protein Extraction Kit containing protease inhibitor and Protein Phosphatase Inhibitor Cocktail (Millipore, Mass., USA). Aortas were homogenized using a pellet pestle motor (Kimble-Kontes, N.J., USA) as per the extraction kit protocol. Samples were then stored once more at -80° C. until Western blot analysis was performed. […] PBS-T). Equal protein loading of samples was determined by a protein assay (Bio-Rad, Calif., USA) and confirmed by probing with an antibody against β-Actin (Sigma-Aldrich #A5316). […] Blots were then washed in PBS-T, developed using SuperSignal West Femto HRP substrate (Pierce Scientific, Ill., USA), exposed to BioMax Scientific Imaging Film (Sigma), and quantified using ImageJ analysis software (NIH, Md., USA).

[2] = system: Fbn1C1039G/+ mice (MFS mice); settings: cited from earlier work; for aortic disease in MFS mice: literature (Habashi 2006; Holm 2011; Habashi 2011; Doyle 2015)
[3] = system: 129 MFS mice (Fbn1C1039G/+ on 129S6/SvEvTac background); assay: Aortic root growth by echocardiography in drug-treated 129 MFS mice; format: in vivo, mouse; settings: for aortic root growth: FIG. 2B
Description: Losartan was dissolved in drinking water and filtered to reach a concentration of 0.6 g/L, giving an estimated daily dose of 60 mg/kg/day, as described previously (Habashi, J. P. et al. Science 312, 117-21 (2006)). Mice were started on losartan at 2 months of age and continued for 8 months. Placebo-treated animals received regular drinking water. RDEA119 was reconstituted in 10% 2-hydroxypropyl-beta-cyclodextrin (Sigma-Aldrich, Mo., USA) dissolved in PBS, and administered twice daily by oral gavage at a dose of 25 mg/kg, as described previously (Holm, T. M. et al. Science 15, 358-61 (2011)). Treatment was initiated at 2 months of age and continued for 2 months. 10% 2-hydroxypropyl-beta-cyclodextrin dissolved in PBS was administered as a control. Erlotinib was reconstituted in 1% methylcellulose (Sigma-Aldrich) dissolved in PBS, and administered daily by oral gavage at a dose of 50 mg/kg. Treatment was initiated at 2 months of age and continued for 2 months. 1% methylcellulose dissolved in PBS was administered as a control.
Mouse echocardiography: Nair hair removal cream was used on all mice the day prior to echocardiography. All echocardiograms were performed on awake, unsedated mice using the VisualSonics Vevo 2100 imaging system and a 30 MHz transducer (Fujifilm VisualSonics, ON, Canada). The aorta was imaged using a parasternal, long-axis view. Three separate measurements of the maximal internal dimension at the sinus of Valsalva and proximal ascending aorta were made from distinct captured images and averaged. All imaging and measurements were performed blinded to genotype and treatment arm.

[4] = system: TGFβ signal transduction (p-SMAD2); settings: measured by p-SMAD2 western blot analysis; cited from earlier work
[5] = system: TGFβ induction in vascular tissues; settings: literature; cited from earlier work
[6] = system: 129 MFS mice (Fbn1C1039G/+ on 129S6/SvEvTac background); assay: Survival / premature lethality from aortic dissection in 129 MFS mice; format: in vivo, mouse; settings: losartan, up to 8 months of treatment, FIG. 2C
Text: Mice were cared for under compliance with the Animal Care and Use Committee of the Johns Hopkins University School of Medicine. Fbn1^C1039G/+ mice on a pure C57BL/6J background were already onsite. Mice on a pure 129S6/SvEvTac background were obtained from Taconic Biosciences (Rensselaer County, N.Y., USA). The Fbn1^C1039G/+ mice on a pure C57BL/6J background were bred into a pure 129S6/SvEvTac background and backcrossed for >10 generations. Mice haploinsufficient or knockout for Mmp17 (B6.129P2-Mmp17^rm1Dg^en/J; #005824), Map2k6 (B6.129S1-Map2k6^tm1Flv/J; #008382) and Map3k4 (B6.129S6-Map3k4^tm1Flv/J; #008375) were obtained from the Jackson Laboratory (Bar Harbor, Me., USA), and bred to Fbn1C1039G/+ mice. Animals were checked daily for death and all mice found dead were immediately autopsied to assess for evidence of aortic dissection. Mice that were sacrificed were done so using a lethal dose of ketamine and acepromazine (1 ml of 10 mg/ml acepromazine in 10 mls of 100 mg/ml ketamine; MWI Vet, ID, USA). At the time of sacrifice, mice underwent immediate laparotomy and descending abdominal aortic transection. Phosphate buffered saline (PBS) was infused through the right and left ventricles to flush out the blood. […]

patients with MFS = settings: literature (Lacro et al., NEJM 371, 2061); cited from earlier work
[7] = oral gavage from 2 to 4 months of age (RDEA119 25 mg/kg twice daily; erlotinib 50 mg/kg daily), 3F

| SMILES | signaling cascade activation in aortic root (Western blot) [1] | aortic disease in MFS mice [2] | all aortic parameters (aortic root size, post-natal aortic root growth, premature lethality from dissection) [3] | aortic root growth [3, 7] | other results |
| --- | --- | --- | --- | --- | --- |
| COc1cc(F)c(F)c(Nc2ccc(I)cc2F)c1NS(=O)(=O)C1(C[C@H](O)CO)CC1 [RDEA119] | selective reduction in noncanonical (Erk1/2, p38) cascades | can suppress aortic disease in MFS mice | fully rescued | reduced aortic root growth to a rate equal to that of WT animals | – |
| Fc1ccc(Cl)cc1-c1nc(Nc2ccncc2)c2nccnc2n1 [SD-208] | – | – | – | – | TGFβ signal transduction [4]: inhibits TGFβ signal transduction in a dose-dependent fashion |
| C#Cc1cccc(Nc2ncnc3cc(OCCOC)c(OCCOC)cc23)c1 [erlotinib] | reduced activation of Egfr, Erk1/2, and p38 | – | – | abrogated aortic root growth | Ang-II infusion-mediated TGFβ induction in vascular tissues [5]: can abrogate Ang-II infusion-mediated TGFβ induction in vascular tissues |
| CCCCc1nc(Cl)c(CO)n1Cc1ccc(-c2ccccc2-c2nn[nH]n2)cc1 [losartan] | – | can suppress aortic disease in MFS mice | fully rescued | – | TGFβ signaling cascades in aortic root (Western blot) ([1]; losartan-treated 129 MFS mice at 10 months of age, FIG. 2D): reduction in both canonical (Smad2) and noncanonical (Erk1/2, p38) TGFβ signaling cascades; multiple phenotypic manifestations (aortic aneurysm, developmental emphysema, mitral valve disease, skeletal muscle myopathy) ([2]; Fbn1C1039G/+ mice, in association with blunted Smad2/3 activation, literature): can be attenuated; premature lethality (survival) [6]: ameliorated premature lethality; aortic root growth in patients with MFS (patients with MFS): some degree of rescue of aortic root growth; aortic root growth ([3]; losartan 0.6 g/L in drinking water (est. 60 mg/kg/day), growth from 2 to 6 months): reduced aortic root growth to a rate equal to that of WT animals |
